From patent US20230058189A1, “QUINOLIN-4-ONE AND 4(1H)-CINNOLINONE COMPOUNDS AND METHODS OF USING SAME” (Frequency Therapeutics, Inc., priority 2019, published 2023)
Converted amounts (≈) assume the structure as drawn.

Columns and labels:
[1] = system: Lgr5+ cells (cochlear stem cells); assay: Lgr5+ assay: expansion of Lgr5-positive cochlear cells in 3D culture; type: cell-based, mouse; conditions: 10 days culture with EGF, bFGF, IGF1, approximate values; for Potency (Lgr5+ activity): effective concentration for Lgr5+ expansion
Text: “Stem Cell Proliferation Assay” as used herein is an assay to determine the capacity for agent(s) to induce the creation of stem cells from a starting cell population. In an exemplary Stem Cell Proliferation Assay, the number of cells for an initial cell population is harvested from a Lgr5-GFP mouse such as a B6.129P2-Lgr5tm1(cre/ERT2)Cle/J mouse (also known as Lgr5-EGFP-IRES-creERT2 or Lgr5-GFP mouse, Jackson Lab Stock No: 008875) between the age of 3 to 7 days, by isolating the organ of Corti sensory epithelium and dissociating the epithelium into single cells. Approximately 5000 cells are entrapped in 40 μl of culture substrate (for example, Matrigel (Corning, Growth Factor Reduced)) and placed at the center of wells in a 24-well plate with 500 μl of an appropriate culture media, growth factors and agent being tested. Appropriate culture media and growth factors include Advanced DMEM/F12 with media supplements (1×N2, 1×B27, 2 mM Glutamax, 10 mM HEPES, 1 mM N-acetylcysteine, and 100 U/ml penicillin/100 μg/ml streptomycin) and growth factors (50 ng/ml EGF, 50 ng/ml bFGF, and 50 ng/ml IGF-1) as well as the agent(s) being assessed are added into each well. Cells are cultured for 10 days in a standard cell culture incubator at 37° C. and 5% CO2, with media change every 2 days. The number of Lgr5^+ cells is quantified by counting the number of cells identified as Lgr5+ in an in vitro Lgr5 activity assay (i.e., an assay mearing in vitro Lgr5 activity). The fraction of cells that are Lgr5^+ is quantified by dividing the number of cells identified as Lgr5^+ in a cell population by the total number of cells present in the cell population. The average Lgr5^+ activity of a population is quantified by measuring the average mRNA expression level of Lgr5 of the population normalized using suitable and unregulated references or housekeeping genes (e.g., Hprt). The number of hair cells in a population may be measured by staining with hair cell marker (e.g., MyosinVIIa), or using an endogenous reporter of hair cell genes (e.g., Pou4f3-GFP, Atoh1-nGFP) and analyzing using flow cytometry. The fraction of cells that are hair cells is quantified by dividing the number of cells identified as hair cells in a cell population by the total number of cells present in the cell population. Lgr5 activity can be measured by qPCR.
The compounds of the present disclosure were used in Lgr5-EGFP-IRES-Cre-ER mice (Barker et al., 2007) to analyze the effects of small molecules on cochlear stem cell expansion.
Isolation of stem cells from the inner ear: All animal studies were conducted under an approved institutional protocol according to National Institutes of Health guidelines. For experiments with neonatal mice (postnatal days 1-3), the cochleae were dissected in Hank's Balanced Salt Solution (HBSS) and the organs of Corti were separated from the stria vascularis and the modiolus. The organs of Corti were then treated with Cell Recovery Solution (Corning) for 1 hour to separate cochlear epithelium from the underlying mesenchyme. Epithelia were then collected and treated with TrypLE (Life Technologies) for 15-20 minutes at 37° C. Single cells obtained by mechanical trituration were filtered (40 μm) and suspended in Matrigel® (Corning) for 3D culture.
Cells were cultured in a 1:1 mixture of DMEM and F12, supplemented with Glutamax (GIBCO), N2, B27 (Invitrogen), EGF (50 ng/ml; Chemicon), bFGF (50 ng/ml; Chemicon), IGF1 (50 ng/ml; Chemicon) and the composition provided herein. Medium was changed every other day.
Lgr5-positive cells were quantified after 10 days (D10) in culture in multiple conditions. Cell colonies were dissociated into single cells using TrypLE (Gibco). The cells were then stained with propidium iodide (P1) and were analyzed using a flow cytometer for Lgr5-GFP expression. The number of GFP-positive cells and the percentage of GFP-positive cells were quantified. […]

[2] = Thermodynamic aqueous solubility at pH 7.4; type: physicochemical; conditions: aqueous buffer, thermodynamic from solid, phosphate buffer pH 7.4, 25° C., approximate values, read-out: Concentration (thermodynamic aqueous solubility)
Method: The aqueous thermodynamic solubilities of the compounds of the present disclosure were measured at pH 7.4.
Determining suitability for use of a compound, e.g., as a therapeutic agent can include determining the thermodynamic solubility of the compound. An example of this determination follows: Accurately weigh about 1 mg of the powder of each compound into a glass insert vial and phosphate buffer into each vial of a capless Solubility Sample plate with the volume of 1 mL per mg. Next, add one stir stick to each vial and seal with a molded PTDE/SIL 96-Well Plate Cover. Transfer the Solubility Sample plate to an Eppendorf Thermomixer Comfort plate shaker and shake the plate at 25° C. at 1,100 rpm for 24 hours. At the end of the incubation, open the cover and remove the stir sticks using a big magnet and transfer the samples from the Solubility Sample plate into the filter plate. Using the vacuum manifold, all the samples were filtered. An aliquot of 100 μL was transferred from filtrate to a new 96-well plate by addition of 900 μL of a mixture of H2O and acetonitrile containing an internal standard (1:1) (10 fold) and 10 μL of the diluted solution was pipetted into a new 96-well plate by addition of 990 μL of a mixture of H2O and acetonitrile containing internal standard (1:1) (1,000 fold). The dilution factor may be changed according to the solubility value and the LC/MS signal response.
To prepare standards for the assay, accurately weigh about 1 mg of the powder of each compound into a glass insert vial, add DMSO into each vial of the Standard Plate with the volume of 1 mL per mg to obtain the 1 mg/mL STD sample. Aliquots of 10 μL were taken from 1 mg/mL STD sample to a new 96-well plate followed by addition of 990 μL of a mixture of H2O and acetonitrile containing internal standard (1:1) to obtain 10 μg/mL STD and then 10 μL aliquots were taken from 10 μg/mL sample to a new 96-well plate followed by addition of 990 μL of a mixture of H2O and acetonitrile containing internal standard (1:1) to obtain 0.1 μg/mL STD. The concentration of the standard sample may be changed according to the LC/MS signal response.
The samples were analyzed and quantified against the standard of known concentration using LC/MS/MS. The solubility of the test compound was calculated as follows: [Sample]=Area Ratio sample×DF sample×[STD]/Area Ratio STD DF means the dilution factor. Any value of the compounds that is not within the specified limits was rejected and the experiment was repeated.

Row | Compound | solubility thermodynamic at 24 h [2] [µM] | % of Lgr5+ Positive Cells [1] [%] | Potency (Lgr5+ activity) [1] [µM]
1 | CCn1cc(C(=O)O)c(=O)c2c(N)c(F)c(N[C@@H]3C[C@H]3c3ccccc3)cc21 [Compound I-21] | – | 21 | 3.3
2 | CCn1cc(C(=O)O)c(=O)c2c(N)c(F)c(N3CCC(N[C@@H]4C[C@H]4c4ccccc4)CC3)cc21 (relative stereo) [Compound I-26] | – | <5 | >10
3 | CCn1cc(C(=O)O)c(=O)c2c(N)c(F)c(N[C@H]3C[C@H](c4ccccc4)C3)cc21 [Compound I-60] | < 10 | 30 | 0.37
4 | CCn1cc(C(=O)O)c(=O)c2c(N)c(F)c(N[C@@H]3C[C@@H]3c3ccccc3)cc21 (relative stereo) [Compound I-23] | < 0.03 | 14 | 2.2
5 | CC(C)n1cc(C(=O)O)c(=O)c2c(N)c(F)c(N[C@]3(C)C[C@@H](N[C@@H]4C[C@H]4c4ccccc4)C3)cc21 (relative stereo) [Compound I-93] | – | 8 | >30
6 | CCn1cc(C#N)c(=O)c2c(N)c(F)c(N[C@@H]3C[C@H]3c3ccccc3)cc21 (relative stereo) [Compound I-38] | < 0.01 | 7.5 | 0.123
7 | CCn1cc(C(=O)O)c(=O)c2c(N)c(F)c(NC3Cc4ccccc4C3)cc21 [Compound I-11] | < 0.08 | 17 | 3.3
8 | CCC(CC)n1cc(C(=O)O)c(=O)c2c(C)c(F)c(NC3CCCCC3)cc21 [Compound I-3] | – | <5 | >10
9 | CCn1cc(C(=O)O)c(=O)c2c(N)c(F)c(NCCN[C@@H]3C[C@@]34CCc3ccccc34)cc21 (relative stereo) [Compound I-82] | – | 48 | 10
10 | CCn1cc(C(=O)O)c(=O)c2c(N)c(F)c(NCCc3ccccc3)cc21 [Compound I-18] | 0.12 (≈ 0.0443 µg/mL) | 31 | 1.1
11 | Nc1c(F)c(N[C@@H]2C[C@H]2c2ccccc2)c(F)c2c1c(=O)c(C(=O)O)cn2C1CC1 (relative stereo) [Compound I-32] | < 0.08 | – | –
12 | CCn1cc(C(=O)O)c(=O)c2c(N)c(F)c(N[C@@H]3CC[C@H]3c3ccccc3)cc21 (relative stereo) [Compound I-13] | < 1.2 | – | –
13 | CCn1cc(C(=O)O)c(=O)c2c(N)c(F)c(NC3CCc4ccccc43)cc21 (stereo not shown) [Compound I-10] | – | 1 | >10
14 | Nc1c(F)c(NCCN[C@@H]2C[C@H]2c2ccccc2)cc2c1c(=O)c(C(=O)O)cn2C1CC1 (relative stereo) [Compound I-89] | – | 35 | 3.3
15 | CCn1cc(C(=O)O)c(=O)c2c(N)c(F)c(N[C@H]3C[C@@H]3c3ccccc3)cc21 [Compound I-22] | – | 16 | 1.1
16 | CCn1cc(C(=O)O)c(=O)c2cc(F)c(NC3CCCCC3)cc21 [Compound I-1] | – | <5 | >10
17 | CC(C)n1cc(C(=O)O)c(=O)c2c(N)c(F)c(NCCN[C@@H]3C[C@H]3c3ccccc3)cc21 (relative stereo) [Compound I-88] | – | 32 | 1.1
18 | CCn1cc(C(=O)O)c(=O)c2c(N)cc(N[C@@H]3C[C@H]3c3ccccc3)cc21 (relative stereo) [Compound I-59] | < 0.06 | – | –

Continued, in another order:

Row | solubility thermodynamic at 24 h [2] [µM] | Compound | % of Lgr5+ Positive Cells [1] [%] | Potency (Lgr5+ activity) [1] [µM]
19 | 49 (≈ 19.9 µg/mL) | CCn1cc(C#N)c(=O)c2c(N)c(F)c(NCCN[C@@H]3C[C@H]3c3ccccc3)cc21 (relative stereo) [Compound I-84] | 9 | 1.1
20 | 9.6 (≈ 4.07 µg/mL) | CCn1cc(C(N)=O)c(=O)c2c(N)c(F)c(NCCN[C@H]3C[C@@H]3c3ccccc3)cc21 (relative stereo) [Compound I-83] | 12 | 1.1
21 | 0.06 (≈ 0.0221 µg/mL) | CCn1cc(C(N)=O)c(=O)c2c(N)c(F)c(NCCc3ccccc3)cc21 [Compound I-66] | – | –
22 | 23 (≈ 9.44 µg/mL) | Cn1cc(C(=O)O)c(=O)c2c(N)c(F)c(NCCN[C@@H]3C[C@H]3c3ccccc3)cc21 (relative stereo) [Compound I-86] | 4 | >30
23 | 0.03 (≈ 0.0118 µg/mL) | CCn1cc(-c2nnn[nH]2)c(=O)c2c(N)c(F)c(NCCc3ccccc3)cc21 [Compound I-68] | – | –
24 | < 0.03 | CCn1cc(C(=O)O)c(=O)c2c(N)c(F)c(NC3CN(c4ccccc4)C3)cc21 [Compound I-69] | 25 | 1.1
25 | 1.6 (≈ 0.721 µg/mL) | CCn1cc(C(=O)O)c(=O)c2c(N)c(F)c(NC3CC(N[C@@H]4C[C@H]4c4ccccc4)C3)cc21 (relative stereo) [Compound I-70] | 30 | 3.3
26 | 0.23 (≈ 0.0806 µg/mL) | CCn1cc(C#N)c(=O)c2c(N)c(F)c(NCCc3ccccc3)cc21 [Compound I-67] | – | –
27 | 0.11 (≈ 0.0406 µg/mL) | CCn1cc(C(=O)O)c(=O)c2c(N)cc(NCCc3ccccc3)c(F)c21 [Compound I-65] | – | –
28 | 54 (≈ 21.4 µg/mL) | CCn1cc(C(=O)O)c(=O)c2c(N)c(F)c(Nc3ccc([C@@H]4C[C@H]4N)cc3)cc21 (relative stereo) [Compound I-62] | – | –
